These results are taken from patent US20260345595A1, “NOVEL FLUORENE DERIVATIVE COMPOUND AND USE THEREOF” (JD BIOSCIENCE INC., priority 2022, published 2026).

Series [1] relates to HCT-116 colorectal cancer. In words: HCT-116 colorectal cancer tumor model. The class given is in vivo, nude mice. The settings on record: 0.5 and 1.0 mg/kg. The procedure: A colorectal cancer model was established by subcutaneously transplanting HCT-116 colorectal cancer cell line into nude mice. The colorectal cancer model was divided into the following three groups: Group 1 was administered a vehicle as a control group, Group 2 was administered 0.5 mg/kg of Compound 1, and Group 3 was administered 1.0 mg/kg of Compound 1. The drug was orally administered once a day for a total of 21 times. To evaluate the therapeutic efficacy, the tumor size was measured before drug administration and on days 3, 7, 10, 14, 17, 21, and 24 after drug administration. The tumor size was calculated as follows:
Tumor size (mm^3)=(A×B^2)/2 • wherein A and B represent the tumor long axis and short axis, respectively.
In addition, the body weight was measured before drug administration and on days 7, 14, and 21 after drug administration.

The test system of series [2] is GvHD in vivo model in BALB/c mice. In words: Graft-versus-host disease (GvHD) animal model. On the set-up: species or system mouse. As to conditions: for production of CD4+IFNg+T cells, mean value: spleen, day 14. The procedure: 5-week-old BALB/c male mice were acclimatized for 1 week and irradiated with 800 cGy of total body irradiation. Then, 5×10^6 bone marrow cells derived from C57BL/6J and 1×10^7 spleen cells were intravenously injected to establish a GvHD in vivo model (positive control). A syngeneic control group was established in the same manner as above, but BALB/c-derived bone marrow cells were selected as the injected bone marrow cells. Compound 1 Daily was established by daily oral gavage of 1 mg/kg of Compound 1 to the GvHD in vivo model. Compound 1 Initial only was established by orally administering 1 mg/kg of Compound 1 to the GvHD in vivo model only for 6 days after model induction. The therapeutic effect of Compound 1 was verified by measuring the change in body weight every 3 days for each control and experimental group established as above, and the results are shown in FIG. 11 and Table 4. On day 14, the production of CD4^+IFNg^+T cells, which is a major factor inducing GvHD, was measured in the spleens isolated from the mice, and the results are shown in FIG. 12 and Table 5.

Series [3] has as its system DSS-induced colitis in C57BL6J JmcSlc mice. The experiment in a line: DSS colitis, inflammatory bowel disease animal model. As to conditions: for colonic epithelial cell recovery (H&E): FIG. 6A. It counts as in vivo, mouse. The procedure:
Colitis was induced in 8-week-old male C57BL6J JmcSlc mice by feeding 3.5% dextran sodium sulfate (DSS) ad libitum for 9 days, and then replacing the same with normal drinking water. The vehicle and Compound 1 (0.5 mg/kg or 1 mg/kg) were orally administered to the experimental animal model prepared as described above daily from 2 days before DSS drinking until the end of drinking. In order to determine the degree of colonic inflammation, the degree of longitudinal contraction of the isolated colon was measured, and the histological scores were confirmed through H&E staining, which is shown in FIG. 6. Furthermore, total RNA was isolated from the isolated colon, cDNA was synthesized, and the expression levels of representative cytokines (IFNγ, IL-1β, IL-4, IL-6, IL-10, IL-12β, IL-17α, and TNFα) were measured and compared using qPCR, and the results are shown in FIG. 7.

The subject of series [4] is NCI-H295R cells. The experiment in a line: Cortisol production, Cushing's syndrome cell model, ELISA. It counts as cell-based, human. As to conditions: 0.1, 0.5 and 1 μM; 8-Br-cAMP 0.5 mM; FIG. 14. The procedure:
NCI-H295R cells (ATCC #CRL-2128), which are a human adrenocortical carcinoma cell line, were seeded at a density of 2.5×10^5 cells/well in a 24-well plate. The cells were cultured for 48 hours, and then they were pretreated with Compound 1 (0.1 μM, 0.5 μM, and 1 μM) for 12 hours. Furthermore, to increase cortisol synthesis, the cells were treated with 8-bromoadenosine […] (8-Br-CAMP) at a concentration of 0.5 mM, and then re-treated with Compound 1, and allowed to react for 24 hours. After the reaction, the cell culture medium was collected, and the amount of cortisol produced in the cells was measured using an ELISA kit, and the results are shown in FIG. 14.

Setting [5] is: colon tissue, qPCR, versus vehicle, FIG. 7.

As to `CC(C(=O)NNc1ccc(F)cc1)n1cc(-c2cc(F)cc3c2-c2ccccc2C3(O)C(F)(F)F)cn1` (centres unmarked) [Compound 1, 2-(4-(2-fluoro-9-hydroxy-9-(trifluoromethyl)-9H-fluoren-4-yl)-1H-pyrazol-1-yl)-N′-(4-fluorophenyl)propanehydrazide], the body weight change entry in series [1] (oral once a day, 21 times) was “no significant body weight change”. Also, the “tumor growth (in words)” value in series [1] (oral, p<0.05 versus vehicle, FIG. 21) is listed as “statistically significant concentration-dependent tumor growth inhibitory effect”. In addition, the “body weight recovery (in words)” value in series [2] (Daily and Initial only, 1 mg/kg oral, versus control, FIG. 11) was “significantly recovered”. In addition, the “production of allogeneic CD4+IFNg+T cells (in words)” value in series [2] (Daily and Initial only, 1 mg/kg oral, versus control, FIG. 12) was “significantly reduced”. Further, the “production of CD4+IFNg+T cells, mean value” in series [2] (Daily, 1 mg/kg oral gavage) is listed as 10.28. Also, the “production of CD4+IFNg+T cells, mean value” in series [2] (Initial only (6 days), 1 mg/kg oral) is 13.04. In addition, in series [3] (0.5 mg/kg and 1 mg/kg, oral daily, versus vehicle, FIGS. 6C and 6D), the “longitudinal contraction of colon” value is “the contraction was alleviated both in the group administered 0.5 mg/kg of Compound 1 and in the group administered 1 mg/kg of Compound 1, as compared to the vehicle administration group, and the effect increased as the administration amount increased”. The “colonic epithelial cell recovery (H&E)” value in series [3] (0.5 mg/kg, oral daily) was “the recovery was slight”. Moreover, the “colonic epithelial cell recovery (H&E)” value in series [3] (1 mg/kg, oral daily) was “remarkable epithelial cell recovery”. Besides, the “tissue (histological) score” value in series [3] (1 mg/kg, oral daily, FIG. 6B) was “the lowest score”. Also, in series [3] (setting [5]), the “IFNγ mRNA expression” value is “significantly reduced”, the “IL-4 mRNA expression” value is given as “increased”, the “IL-6 mRNA expression” value is recorded as “significantly reduced” and the “IL-12b mRNA expression” value is given as “significantly reduced”. In series [3] (setting [5]), the “IL-17a mRNA expression” value is recorded as “significantly reduced” and the “TNFα mRNA expression” value is “significantly reduced”. The cortisol production entry in series [4] was “significantly inhibited by the administration of Compound 1, and this inhibition showed a concentration-dependent tendency”.
